The conditions of data set [1]: in vivo.
The next data set is described as follows: in vivo. Particulars: male, Landrace × Large White × Duroc, pig, 0.1 mg/kg.
Another data set is described as follows: in vitro. The settings on record: human, Caco-2, Papp (apparent permeability coefficient). (Caco-2 monolayers are a common model of the intestinal barrier.)
The test system of another data set is mice. The settings on record: mouse, in vivo, cited from earlier work.
Another data set deals with rats. The settings on record: rat, in vivo; cited from earlier work.
In data set [2] the test system is Caco-2 cells. Particulars: human.
The conditions of data set [3]: rat, in vivo, sc; cited from earlier work.
The conditions of data set [4]: pig, in vivo; cited from earlier work.
Data set [5] concerns Caco-2 cells. Particulars: cited from earlier work.
The conditions of data set [6]: monkey, in vivo; cited from earlier work.
The conditions of data set [7]: rat, in vivo; cited from earlier work.
The mark [8] stands for this setting: male, Landrace × Large White × Duroc, swine, 0.1 mg/kg.
The mark [9] stands for this setting: male, Landrace × Large White × Duroc, swine, po, 0.1 mg/kg.

Read-outs that look alike come from different tables or passages of the source.

For orientation: AUC(0-inf) means the area under the concentration-time curve extrapolated to infinity. Read a low AUC(0-inf) as low exposure. As a reminder, the AUC(0-t) is exposure summed from dosing to a finite time, without extrapolation to infinity. A high value points to high exposure. One may read the MRT as the average time that molecules of a dose stay in the body. For orientation: half-life means the time in which the quantity being followed falls by half. A low value points to rapid decline. For orientation: Cmax means the highest concentration seen after dosing. What is called Tmax is the time at which the peak concentration occurs. One may read the Papp as a coefficient for how fast a substance crosses the barrier.

In the case of `COc1cc(=O)oc(/C=C/C=C/C=C/C(C)=C/[C@]2(C)O[C@H](C)[C@](C)(O)[C@H]2O)c1C` [CTVD, Citreoviridin], the adverse clinical signs entry in data set [1] is “None”. In data set [1] (po, 0.1 mg/kg), the “plasma CTVD concentration until 3 h after PO” value is on record as “almost no increase”. For the same compound, in data set [1] (male, Landrace × Large White × Duroc, swine), the “time to eliminate CTVD in plasma” value is “more than 40 h”. For the same compound, in data set [1] (setting [8]), the “F (bioavailability calculated using mean AUC∞ after PO and IV)” value was 116.4%; the “Ft (bioavailability calculated using mean AUCt after PO and IV)” value is given as 79.3%. In [1] (male, Landrace × Large White × Duroc, swine, iv, 0.1 mg/kg), the “Vd (apparent volume of distribution)” value stood at 1.5 ± 0.2 L. Moreover, the “extrapolation estimate of AUC (from 48 h to infinity) relative to AUCt” value in data set [1] (male, Landrace × Large White × Duroc, swine, po) is 68 % of AUCt. In data set [1] (setting [9]), the “Kel (rate constant)” value is on record as 0.4 ± 0.2 ×10^−1 h^−1 and the “Vd/F (apparent volume of distribution)” value was determined as 1.7 ± 0.3 L. In addition, in the data set “in vivo” (iv), the AUC(0-inf) was found to be 1.51 ± 0.332 µg·h/mL, the area under the curve AUC(0-t) is 1.32 ± 0.224 µg·h/mL, the mean residence time MRT came to 14.6 ± 1.2 h and the half-life was 16.2 ± 4.3 h. Further, in “in vivo” (po), the area under the curve AUC(0-inf) was determined as 1.76 ± 0.814 µg·h/mL, the area under the curve AUC(0-t) was determined as 1.05 ± 0.181 µg·h/mL, the peak level (Cmax) was 0.0382 ± 0.0067 µg/mL and the MRT is 19.6 ± 4 h. In “in vivo” (po), the Tmax was found to be 15 ± 6 h and the half-life is 21.4 ± 12.7 h. Also, in the data set “in vitro”, the Papp was determined as 522 ± 283 nm/s. Also, the “LD50 (lethal dose 50%)” value with mice (ip) is on record as 7.5 mg/kg. The “LD50 (lethal dose 50%)” value in the data set on mice (sc) was 3.6 to 11.8 mg/kg. Further, the “outcome of chronic low-dose administration” value with rats is “rats died”. For the same compound, the “Papp (apparent permeability coefficient)” value in the data set on Caco-2 cells [2] was 42.6 ± 17.7 ×10^−6 cm/s. In addition, in data set [3], the “CTVD still detected in the liver after 52 h” value is on record as < 1 % of the total administered dose; the “persistence of CTVD in organs at 52 h” value was “remained in the liver, kidney, and heart”; the “time at which the concentration of CTVD was highest in the liver” value is given as 8 h.

`CC1=C[C@H]2O[C@@H]3[C@H](O)C[C@](C)([C@@]2(CO)[C@H](O)C1=O)[C@]31CO1` [deoxynivalenol]: in data set [4], the bioavailability is on record as 48–109.8% and the elimination half-life was 7.2 to 15.2 h. For the same compound, in the data set on Caco-2 cells [5] (Caco-2), the Papp is 0.19 ± 0.02 × 10^−6 cm/min.

Take `CCCC[C@@H](C)[C@@H](OC(=O)C[C@@H](CC(=O)O)C(=O)O)[C@H](C[C@@H](C)C[C@H](O)CCCC[C@@H](O)C[C@H](O)[C@H](C)N)OC(=O)C[C@@H](CC(=O)O)C(=O)O` [fumonisin B1]: the elimination half-life in data set [4] is 3.03 h.

Regarding `C[C@@H]1Cc2c(Cl)cc(C(=O)N[C@@H](Cc3ccccc3)C(=O)O)c(O)c2C(=O)O1` [ochratoxin A], the elimination half-life in data set [6] is reported as 840 h. In data set [4], the bioavailability was 65.7% and the elimination half-life is 84.5 h.

On to `C[C@H]1CCCC(=O)CCC/C=C/c2cc(O)cc(O)c2C(=O)O1` [zearalenone], for which the bioavailability in [4] is given as 80–85%. Also, the Papp in the data set on Caco-2 cells [5] (Caco-2) is 10.4 ± 4.7 × 10^−6 cm/s.

aflatoxin B1: the elimination half-life in data set [7] is 91.8 h.

Consider aflatoxin M1, for which, in the data set with Caco-2 cells [5], the apparent permeability (Papp) was 105.10 ± 7.98 ×10^−6 cm/s.

Values taken from paper PMC6628624 (Toxins, 2019).
